Assay results: patent US7202023B2 (priority 2000, dated 2007)
≈ marks a conversion by molar mass, not a printed value.

Assays:
[1] = tested on: panBCD operon (panB promoter); assay: RNA (transcriptional) profiling of panB, panC, panD mRNA levels in treated bacterial cells; assay type: cell-based, B. subtilis; conditions: LB medium, 37° C.
[2] = tested on: B. subtilis reporter strain PY79(amy::PpanB::lacZ, cat); assay: Minimum inhibitory concentration (MIC) in 96-well microtiter plate, OD600 after about 18 hours; assay type: cell-based; conditions: Bacillus subtilis
Description: The minimum inhibitory concentrations (MIC) for trimethoprim and sulfamethoxazole were determined for each of the reporter strains. To determine the MIC, a compound of interest (e.g., trimethoprim or sulfamethoxazole) was placed in a 96-well microtiter plate such that the concentration of the compound varies in various wells of the plate (e.g., by using a series of 2-fold dilutions of the compound). Approximately 5,000 cells from a logarithmically-growing culture (e.g., the B. subtilis strain PY79) in Luria broth were added to each well (e.g., in a volume of 50–80 μl). The plate then was incubated at 37° C. for approximately 18 hours. The OD600 was then read to measure cell growth in each well of the plate. The lowest concentration of the compound that leads to complete killing of the culture (i.e., the concentration of compound for which the OD600 nm is equal to a control well that contains only media and the test compound) is deemed the MIC for the particular compound and bacterial strain.

PABA uptake = conditions: 14C-PABA, Herrington (1994) Anal Biochem 216:427–430; cited from earlier work
[3] = 10 μg/ml trimethoprim, 90 minutes

| SMILES | panD mRNA levels induced ([1]; 0.5 mg/ml sulfamethoxazole, 80 minutes) | MIC [2] | PABA uptake (PABA uptake) | panB mRNA levels induced [1, 3] | panC mRNA levels induced [1, 3] | panD mRNA levels induced [1, 3] |
| --- | --- | --- | --- | --- | --- | --- |
| Cc1cc(NS(=O)(=O)c2ccc(N)cc2)no1 [sulfamethoxazole] | 148 fold | 500 µg/mL (≈ 1970 µM) |  |  |  |  |
| Nc1ccc(S(=O)(=O)Nc2nccs2)cc1 [sulfathiazole] |  |  | inhibited |  |  |  |
| COc1cc(Cc2cnc(N)nc2N)cc(OC)c1OC [trimethoprim] |  | 3 µg/mL (≈ 10.3 µM) | inhibited | 10 fold | 54 fold | 38 fold |
